Among the test systems are NCI/ADR-RES ovarian; OVCAR-8 ovarian; KM12 colon; OVCAR-3 ovarian; DU-145 prostate; LOX IMVI melanoma; SW-620 colon; MCF7 breast; TK-10 renal; UO-31 renal.
Holding throughout (assay): DTP human tumour cell line panel, 48 h

Data on 20 compounds can be found in PubChem BioAssay (NCI).

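48-hour exposure; five concentrations; linearly interpolated endpoints. TGI: total growth inhibition.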

For `COc1ccc(/C=C/C(=O)N[C@@H]2C(=O)N3[C@@H]2SC(C)(C)[C@@H]3C(=O)O)cc1OC`, the total growth inhibition concentration (TGI) in the test on NCI/ADR-RES ovarian, in the test with OVCAR-8 ovarian, in the test with KM12 colon, in the test with OVCAR-3 ovarian, with DU-145 prostate and in the test with LOX IMVI melanoma was greater than 100 µM in each case. Moreover, the TGI in the test on SW-620 colon, with MCF7 breast, in the test on TK-10 renal and in the test on UO-31 renal was greater than 100 µM in each case.
As to `ClC1(Cl)C2CCOC21n1cnc2ccccc21` (stereo not drawn), the TGI with NCI/ADR-RES ovarian, with OVCAR-8 ovarian, in the test on KM12 colon, in the test with OVCAR-3 ovarian, in the test on DU-145 prostate and in the test on LOX IMVI melanoma was greater than 100 µM in each case. In addition, the TGI in the test with SW-620 colon, in the test on MCF7 breast and with UO-31 renal was greater than 100 µM each time.
In the case of `CCOC(=O)CCNC(=O)c1cc(C)cc2c1Oc1c(cc(C)cc1C(=O)NCCC(=O)OCC)S2`, the concentration for total growth inhibition (TGI) with NCI/ADR-RES ovarian, with OVCAR-8 ovarian, in the test on KM12 colon, with OVCAR-3 ovarian, with DU-145 prostate and in the test on LOX IMVI melanoma was greater than 100 µM each time. The TGI in the test on SW-620 colon, in the test with MCF7 breast, with TK-10 renal and in the test on UO-31 renal was greater than 100 µM throughout.
Regarding `CC(C)[Si](CC1=CCCCC12C(=O)N(COCC[Si](C)(C)C)c1ccccc12)(C(C)C)C(C)C` (stereo not drawn), the concentration for total growth inhibition (TGI) in the test on NCI/ADR-RES ovarian, with OVCAR-8 ovarian, in the test with KM12 colon, in the test on OVCAR-3 ovarian, with DU-145 prostate and with LOX IMVI melanoma was greater than 100 µM each time. In addition, the TGI in the test with SW-620 colon, with MCF7 breast, in the test on TK-10 renal and with UO-31 renal was greater than 100 µM throughout.
In the case of `CC1(C)C/C=C\CCC(O)C(O)CCC(C)(C)C1=O` (stereo not drawn), the total growth inhibition concentration (TGI) with NCI/ADR-RES ovarian, with OVCAR-8 ovarian, in the test on KM12 colon, in the test with OVCAR-3 ovarian, in the test with DU-145 prostate and in the test with LOX IMVI melanoma was greater than 100 µM throughout. The total growth inhibition concentration (TGI) with SW-620 colon, in the test on MCF7 breast, with TK-10 renal and in the test with UO-31 renal was greater than 100 µM throughout.
As to `CNC(=S)c1nnsc1N`, the TGI in the test on NCI/ADR-RES ovarian, in the test with OVCAR-8 ovarian, in the test on KM12 colon, in the test on OVCAR-3 ovarian, in the test on DU-145 prostate and with LOX IMVI melanoma was greater than 100 µM in each case. The concentration for total growth inhibition (TGI) in the test on SW-620 colon, with MCF7 breast, in the test with TK-10 renal and in the test on UO-31 renal was greater than 100 µM in each case.
With `Cc1c(OCc2cccc3ccccc23)ccc2c(=O)cc(S)oc12`, the TGI (usually the concentration at which net growth stops) was greater than 100 µM in the test on NCI/ADR-RES ovarian; greater than 100 µM with OVCAR-8 ovarian; greater than 100 µM in the test on KM12 colon; 53.6 µM in the test with OVCAR-3 ovarian; greater than 100 µM in the test on DU-145 prostate; 47.5 µM in the test on LOX IMVI melanoma. Also, the TGI with SW-620 colon, in the test with MCF7 breast, in the test with TK-10 renal and with UO-31 renal was greater than 100 µM in each case.
Take `C/C(=N\Nc1nc2ccccc2[nH]1)c1ccc2ccccc2n1`: the concentration for total growth inhibition (TGI) with NCI/ADR-RES ovarian is 7.63 µM; in the test with OVCAR-8 ovarian, greater than 100 µM; with KM12 colon it was 14.3 µM; in the test with OVCAR-3 ovarian it was 2.95 µM; in the test on DU-145 prostate it was 5.88 µM; with LOX IMVI melanoma, 10.2 µM. In addition, the TGI with SW-620 colon came out at 14.6 µM; with MCF7 breast, 13.8 µM; with TK-10 renal, 13.2 µM; in the test on UO-31 renal, 5.1 µM.
As to `O=C1CN2CCN(CC2)CC(=O)Nc2ccc(cc2)S(=O)(=O)c2ccc(cc2)NC(=O)CN2CCN(CC2)CC(=O)Nc2ccc(cc2)S(=O)(=O)c2ccc(cc2)N1`, the concentration for total growth inhibition (TGI) in the test with NCI/ADR-RES ovarian is greater than 87.3 µM; with OVCAR-8 ovarian, greater than 100 µM; with KM12 colon, greater than 100 µM; with OVCAR-3 ovarian, greater than 100 µM; in the test with DU-145 prostate it was greater than 100 µM; with LOX IMVI melanoma it was greater than 100 µM. The total growth inhibition concentration (TGI) with SW-620 colon is 50.7 µM; in the test with MCF7 breast, greater than 100 µM; in the test with TK-10 renal, greater than 100 µM; in the test on UO-31 renal, greater than 100 µM.
For `Cc1csc(CP(=O)(OC(C)C)OC(C)C)n1`, the concentration for total growth inhibition (TGI) with NCI/ADR-RES ovarian, in the test on OVCAR-8 ovarian, in the test with OVCAR-3 ovarian, with DU-145 prostate, in the test with LOX IMVI melanoma and with SW-620 colon was greater than 100 µM in each case. For the same compound, the concentration for total growth inhibition (TGI) in the test on MCF7 breast, with TK-10 renal and in the test with UO-31 renal was greater than 100 µM throughout.
Turning to `CCOC(=O)C1=CN(Cc2ccccc2)C2ON=C(c3ccc(Cl)cc3)C2C1` (stereo not drawn), the TGI in the test with NCI/ADR-RES ovarian is greater than 72.3 µM; in the test with OVCAR-8 ovarian, greater than 67.4 µM; in the test with KM12 colon, greater than 66.5 µM; in the test with OVCAR-3 ovarian, greater than 67.1 µM; with DU-145 prostate, greater than 70 µM; with LOX IMVI melanoma, greater than 74.2 µM. Also, the TGI is greater than 65.7 µM with SW-620 colon, greater than 64.6 µM with MCF7 breast, greater than 81.3 µM in the test on TK-10 renal and 52.5 µM in the test on UO-31 renal.
On to `O=C(CCCN1CCC(Nc2ccc(F)cc2)(c2nnnn2C2CCCCC2)CC1)c1ccc(F)cc1`, for which the TGI is 46.9 µM with NCI/ADR-RES ovarian; 63.4 µM in the test on OVCAR-8 ovarian; 13.3 µM in the test on KM12 colon; 31.8 µM in the test on OVCAR-3 ovarian; 28.4 µM with DU-145 prostate; greater than 100 µM in the test on LOX IMVI melanoma. In addition, the TGI is greater than 100 µM in the test with SW-620 colon, 33.1 µM in the test on MCF7 breast, 29.4 µM in the test on TK-10 renal and 28.4 µM in the test with UO-31 renal.
Take `COc1ccc(C2=Nn3c(C)nnc3S/C2=C\c2ccc(-c3ccc([N+](=O)[O-])cc3)o2)cc1`: the TGI with NCI/ADR-RES ovarian came to 23.2 µM; with OVCAR-8 ovarian, 15.9 µM; in the test with KM12 colon, 40.1 µM; with OVCAR-3 ovarian, 33 µM; in the test with DU-145 prostate, 27.3 µM; in the test with LOX IMVI melanoma it was 30.3 µM. Also, the total growth inhibition concentration (TGI) with MCF7 breast was found to be 88.7 µM; in the test on TK-10 renal, 34.3 µM; in the test with UO-31 renal, 29.8 µM.
Regarding `COC1=C2C[C@](OC)(C#CC=CC#CC2O)CC1(C)C` (stereo partly drawn), the TGI in the test with NCI/ADR-RES ovarian, with OVCAR-8 ovarian, in the test with KM12 colon, in the test with OVCAR-3 ovarian, with DU-145 prostate and in the test on LOX IMVI melanoma was greater than 100 µM in each case. The TGI in the test on SW-620 colon is greater than 100 µM; in the test with MCF7 breast it was greater than 100 µM; in the test on TK-10 renal it was greater than 100 µM; in the test with UO-31 renal it was 80.3 µM.
As for `O=[N+]([O-])C(=C(\Cl)NCCO)/C(Cl)=C(/Cl)Br`, the TGI in the test with NCI/ADR-RES ovarian stood at 7.42 µM; in the test on OVCAR-8 ovarian, 7.31 µM; in the test on KM12 colon, 17.6 µM; in the test with OVCAR-3 ovarian it was 2.62 µM; in the test on DU-145 prostate it was 20.6 µM; in the test on LOX IMVI melanoma it was 2.19 µM. Also, the TGI with SW-620 colon was 2.68 µM; in the test on MCF7 breast, 2.59 µM; in the test on TK-10 renal, 4.91 µM; with UO-31 renal, 10.6 µM.
Take `CC1=NN(c2cccc(S(=O)(=O)O)c2)C2(C1)SCC(=O)N2c1nc2ccccc2s1` (stereo not drawn): the total growth inhibition concentration (TGI) in the test with NCI/ADR-RES ovarian, with OVCAR-8 ovarian, in the test on KM12 colon, with OVCAR-3 ovarian, in the test with DU-145 prostate and in the test with LOX IMVI melanoma was greater than 100 µM in each case. Also, the total growth inhibition concentration (TGI) with SW-620 colon, in the test with MCF7 breast, with TK-10 renal and in the test on UO-31 renal was greater than 100 µM each time.
`O=[N+]([O-])c1cc(C2ON=C(c3ccccc3)N2C23CC4CC(CC(C4)C2)C3)ccc1Cl` (stereo not drawn): the total growth inhibition concentration (TGI) in the test on NCI/ADR-RES ovarian, in the test on OVCAR-8 ovarian, in the test with KM12 colon, in the test on OVCAR-3 ovarian, in the test with DU-145 prostate and in the test with LOX IMVI melanoma was greater than 100 µM in each case. Moreover, the TGI in the test with MCF7 breast, with TK-10 renal and in the test on UO-31 renal was greater than 100 µM throughout.
Take `O=C(O)Cc1ccc(-n2nnc3c(=O)[nH][nH]c(=O)c32)cc1`: the TGI in the test with NCI/ADR-RES ovarian, with OVCAR-8 ovarian, in the test on KM12 colon, in the test with OVCAR-3 ovarian, in the test with DU-145 prostate and in the test with LOX IMVI melanoma was greater than 100 µM each time. For the same compound, the total growth inhibition concentration (TGI) in the test on MCF7 breast, in the test with TK-10 renal and in the test on UO-31 renal was greater than 100 µM each time.
With `Cc1cc(NS(=O)(=O)c2ccc(N=Nc3c(Nc4ccccc4)nn(-c4ccc(S(=O)(=O)Nc5ccncn5)cc4)c3C)cc2)no1`, the TGI in the test on NCI/ADR-RES ovarian, with OVCAR-8 ovarian, with KM12 colon, with OVCAR-3 ovarian, with DU-145 prostate and with LOX IMVI melanoma was greater than 100 µM in each case. The TGI in the test with MCF7 breast, in the test on TK-10 renal and in the test on UO-31 renal was greater than 100 µM each time.
On to `CCOC(=O)C(C(=O)OCC)C(=S)NC1OC(COC(C)=O)C(OC(C)=O)C(OC(C)=O)C1OC(C)=O` (stereo not drawn), for which the TGI in the test with NCI/ADR-RES ovarian, with OVCAR-8 ovarian, in the test with KM12 colon, in the test with OVCAR-3 ovarian, in the test on DU-145 prostate and in the test with LOX IMVI melanoma was greater than 100 µM in each case. The total growth inhibition concentration (TGI) in the test with SW-620 colon, in the test with MCF7 breast and in the test with UO-31 renal was greater than 100 µM in each case.
